Experimental data published in US8927548B2, “Triazole compounds that modulate HSP90 activity” (Synta Pharmaceuticals Corp., priority 2006, dated 2015).
Structures can show the parent of a compound that is named as a salt.

Tests used:
Hsp90 = assay: Degradation of Her2 / inhibition of Hsp90, Method 2: MV-4-11 cell survival after 72 hours (Cell Counting Kit-8); type: cell-based, human; conditions: Table 4, IC50 range, MV-4-11 cells
Experimental: MV-4-11 cells (20,000 cells/well) were cultured in 96-well plates and maintained at 37° C. for several hours. The cells were treated with a compound of the invention or 17AAG (a positive control) at various concentrations and incubated at 37° C. for 72 hours. Cell survival was measured with Cell Counting Kit-8 (Dojindo Laboratories, Cat. # CK04). […] Tables 4-6: IC50 range of compounds of the invention for inhibition of Hsp90

Her2 = assay: Degradation of Her2 in BT-474 cells, Method 1 (Western blot); type: cell-based, human; conditions: 0.5 μM, overnight
Experimental: Human high-Her2 breast carcinoma BT474 (HTB-20), SK-BR-3 (HTB-30) and MCF-7 breast carcinoma (HTB-22) from American Type Culture Collection, VA, USA were grown in Dulbecco's modified Eagle's medium with 4 mM L-glutamine and antibiotics ([…] penicillin and 100 μg/ml streptomycine; GibcoBRL). To obtain exponential cell growth, cells were trypsinized, counted and seeded at a cell density of 0.5×10^6 cells/ml regularly, every 3 days. All experiments were performed on day 1 after cell passage.
BT-474 cells are treated with 0.5 μM, 2 μM, or 5 μM of 17AAG (a positive control) or 0.5 μM, 2 μM, or 5 μM of a compound of the invention overnight in DMEM medium. After treatment, each cytoplasmic sample is prepared from 1×10^6 cells by incubation of cell lysis buffer (#9803, cell Signaling Technology) on ice for 10 minutes. The resulting supernatant used as the cytosol fractions is dissolved with sample buffer for SDS-PAGE and run on a SDS-PAGE gel, blotted onto a nitrocellulose membrane by using semi-dry transfer. Non-specific binding to nitrocellulose is blocked with 5% skim milk in TBS with 0.5% Tween at room temperature for 1 hour, then probed with anti-Her2/ErB2 mAb (rabbit IgG, #2242, Cell Signaling) and anti-Tubulin (T9026, Sigma) as housekeeping control protein. […]

Compound `CC(=O)N1Cc2ccc(-n3c(O)nnc3-c3cc(C(C)C)c(O)cc3O)cc2C1` [Compound 23, 1-(5-(3-(2,4-dihydroxy-5-isopropylphenyl)-5-hydroxy-4H-1,2,4-triazol-4-yl)isoindolin-2-yl)ethanone] has an IC50 (Hsp90) of under 500 nM.

`CC(C)c1cc(-c2nnc(O)n2-c2ccc3c(c2)CCN3C(=O)C2CCC(N)CC2)c(O)cc1O` (stereo not drawn) [Compound 39, (4-Aminocyclohexyl)(5-(3-(2,4-dihydroxy-5-isopropylphenyl)-5-hydroxy-4H-1,2,4-triazol-4-yl)indolin-1-yl)methanone hydrochloride] was tested, and the IC50 (Hsp90) was under 1000 nM.

`C=CCNC1=C2C[C@@H](C)C[C@H](OC)[C@H](O)[C@@H](C)/C=C(\C)[C@H](OC(N)=O)[C@@H](OC)/C=C\C=C(/C)C(=O)NC(=CC1=O)C2=O` [Compound 17AAG, 17-allylamino-17-demethoxygeldanamycin] was tested, and the “degradation of Her2” value (Her2) was “partial degradation”.
